# From patent EP0701444B1, “METHODS AND COMPOSITIONS FOR INDUCING SLEEP” (Purdue Pharma Ltd., priority 1993, dated 1994)
# Entries after “also recorded” stand apart in the source; their conditions may differ. Where two headings read alike, the source gives them in different places.
# What was measured:
# [1] = target: steroid site on the GABAA receptor-chloride channel complex; experiment: [35S]TBPS binding assay; set-up: species or system Male Sprague-Dawley rats; settings: inhibition of [35S]TBPS (2 nM) binding, rat cerebral cortex P2 membranes, 5 µM GABA, 90 minute incubation at 22°C
# Experimental: TBPS binding assays were conducted according to the following procedures, which are described in Gee, K.W.; Lawrence, L.J.; and Yamamura, H. I., "Modulation of the Chloride Ionophore by Benzodiazepine Receptor Ligands Influence of Gamma-Aminobutyric Acid and Ligand Efficacy," Molecular Pharmacology, 30:218, 1986. Male Sprague-Dawley rats (200-250g) were anesthetized with carbon dioxide and decapitated. The rats' brains were removed and the cerebral cortices were dissected and homogenized in 10 volumes of 0.32 M sucrose. Tissue was centrifuged at 1000 x g for 10 minutes and the resultant supernatant was centrifuged at 9,000 g for 20 minutes. The resultant pellet was resuspended in 10 volumes of 200 mM NaCl/50 mM Na-K phosphate pH 7.4 buffer (binding buffer) and then centrifuged at 9,000 x g for 10 minutes. This washing procedure was repeated twice and the final P2 pellet was resuspended in the binding buffer. For the binding assay, [^35S] TBPS (2 nM) was co-incubated in binding buffer with P2 membranes and 5 µM GABA and either 1) no additions to measure total binding; 2) 2 µM unlabeled TPBS to measure nonspecific binding; 3) the neurosteroid ranging in concentration from 1 Nm to 10µM. Following a 90 minute incubation at 22°C, the suspension was filtered and the bound radioactivity was determined by liquid scintillation counting. […] A lower IC50 indicates higher affinity for the steroid site on the GABAA receptor-chloride channel complex. Table 1 gives the IC50 values of representative steroids used in the present invention.
# rats = experiment: Rat sleep-wake bioassay (EEG, EMG, locomotor activity, body temperature); format: in vivo, Wistar rats; settings: for reduction in locomotor activity (LMA) over time: compared to Triazolam and Zolpidem; for LMA versus vehicle control: administered at CT-5, first hour after treatment
# Experimental: Rat preparation, monitoring, and analysis of the data was conducted as described below. […] Body temperature and locomotor activity were monitored via a miniature transmitter (Minimitter) surgically placed in the abdomen. The cranial implant consisted of stainless steel screws (2 frontal [+3.9 AP form bregma, ±2.0 ML] and two occipital [-6.4 AP, ±5.5 ML]) for EEG recording. Two Teflon-coated steel wires were positioned under the nuchal trapezoid muscles for EMG recording. All leads were soldered to a miniature connector prior to surgery, and chemically sterilized in Glutarex (3M Co.). The implant assembly was affixed to the skull with dental acrylic. A minimum of three weeks was allowed for recovery.
# Each rat was permanently housed in its own individual recording cage located within separate, ventilated compartments of custom-designed stainless steel cabinets. Each Nalgene microisolator cage, which is an individual recording cage, was enhanced with a filter-top riser and swivel-commutator. Food and water were available ad libitum. […] Animals were undisturbed for three days both before and after treatments. In practice, animals were undisturbed during the weekend. Treatments were administered on Monday evening or Tuesday morning, and the animals were again left undisturbed until Friday, when cages were cleaned and the data copied off the computers.
# The computers monitored the EEG, EMG, body temperature and non-specific locomotor activity (LMA) via telemetry, and drinking activity from 48 rats simultaneously. The computer classified the arousal state every 10 seconds using pattern-matching algorithms which included behavior-dependent contextual rules. Drinking and LMA were recorded every 10 seconds, while body temperature was recorded every minute.
# Therefore, time of treatment is important. By administering the drug at CT-18, which is the peak of the rat's activity dominated period, the natural tendency for the rats to sleep at lights on ([…] clock time or Circadian Time, CT-0) cannot mask the hypnotic activity of the drug. By administering the drug at CT-5 when the propensity for REM sleep is greatest, the drug's effect on REM sleep can be measured more accurately. The activity dominated period begins when the lights are turned off at CT-12 or 15:00 clock time on the Figures.
# The drugs and controls were injected intraperitoneally or administered orally in a volume of 1 ml/kg or […], respectively, under dim red illumination for the CT-18 studies or under regular light for the CT-5 studies.
# A matched control group, N=20, was selected from a pool of 60 available control candidates. These matched control groups were constructed as follows.
# [2] = administered at CT-18, first few hours after administration
structure (smiles),measurement,setting,value
CC(=O)[C@H]1CC[C@H]2[C@@H]3CC[C@@H]4C[C@H](O)CC[C@]4(C)[C@H]3CC[C@]12C [3α-hydroxy-5β-pregnan-20-one],IC50,[1],25 nM
same,body temperature,rats,tends not to affect body temperature
same,duration of uninterrupted NREM sleep (sleep bout length),rats,strong increase
same,rebound insomnia / rebound wakefulness / rebound effects,rats,not producing rebound wakefulness
same,reduction in locomotor activity (LMA) over time,rats; 10 mg/kg,no reduction
same,reduction in locomotor activity (LMA) over time,rats; 30 mg/kg,moderately smaller reduction
same,rebound reduction of NREM sleep,"rats; CT-5 or CT-18, any dose",no rebound reduction of NREM sleep
same,NREM sleep,"rats; administered at CT-5 or CT-18, listed as Pregnanolone",potent at both CT-5 and CT-18; also recorded: potent NREM-promoting effect
same,NREM sleep,"rats; administered at CT-5 or CT-18, listed as pregnanolone",effective in promoting NREM sleep
same,REM sleep,rats; listed as Pregnanolone,slight REM-interference
same,REM sleep,rats; listed as pregnanolone,lack an inhibitory effect on REM sleep
COCC(=O)[C@H]1CC[C@H]2[C@@H]3CC[C@@H]4C[C@@](O)(C(F)(F)F)CC[C@@H]4[C@H]3CC[C@]12C [3α-hydroxy-21-methoxy-3β-trifluoromethyl-5β-19-nor-pregnan-20-one],IC50,[1],252 nM
CC/C=C1/CC[C@H]2[C@@H]3CC[C@@H]4C[C@H](O)CC[C@]4(C)[C@H]3CC[C@]12C [3α-hydroxy-21-methyl-5β-pregnan-17(20)(Z)-ene],IC50,[1],217 nM
CCC(=O)[C@H]1CC[C@H]2[C@@H]3CC[C@@H]4C[C@H](O)CC[C@]4(C)[C@H]3CC[C@]12C [3α-hydroxy-21-methyl-5β-pregnan-20-one],IC50,[1],78 nM
COC[C@@]1(O)CC[C@@]2(C)[C@H](CC[C@@H]3[C@@H]2CC[C@]2(C)[C@@H](C(C)=O)CC[C@@H]32)C1 [3α-hydroxy-30-methoxymethyl-5β-pregnan-20-one],IC50,[1],40 nM
CCCCCC#C[C@@]1(O)CC[C@@]2(C)[C@H](CC[C@@H]3[C@@H]2CC[C@]2(C)[C@@H](C(C)=O)CC[C@@H]32)C1 [3β-(1-Heptynyl)-3α-hydroxy-5β-pregnan-20-one],IC50,[1],65 nM
CCCCC#C[C@@]1(O)CC[C@@]2(C)[C@H](CC[C@@H]3[C@@H]2CC[C@]2(C)[C@@H](C(C)=O)CC[C@@H]32)C1 [3β-(1-Hexynyl)-3α-hydroxy-5β-pregnan-20-one],IC50,[1],44 nM
CCCCCCC#C[C@@]1(O)CC[C@@]2(C)[C@H](CC[C@@H]3[C@@H]2CC[C@]2(C)[C@@H](C(C)=O)CC[C@@H]32)C1 [3β-(1-Octynyl)-3α-hydroxy-5β-pregnan-20-one],IC50,[1],63 nM
CC(=O)[C@H]1CC[C@H]2[C@@H]3CC[C@@H]4C[C@@](O)(C#Cc5ccccc5O)CC[C@]4(C)[C@H]3CC[C@]12C [3β-(2'-Hydroxyphenyl)ethynyl-3α-hydroxy-5β-pregnan-20-one],IC50,[1],192 nM
CC(=O)c1ccc(C#C[C@@]2(O)CC[C@@]3(C)[C@H](CC[C@@H]4[C@@H]3CC[C@]3(C)[C@@H](C(C)=O)CC[C@@H]43)C2)cc1 [3β-(4'-Acetylphenyl)ethynyl-3α-hydroxy-5β-pregnan-20-one],IC50,[1],14 nM
CCOC(=O)c1ccc(C#C[C@@]2(O)CC[C@@]3(C)[C@H](CC[C@@H]4[C@@H]3CC[C@]3(C)[C@@H](C(C)=O)CC[C@@H]43)C2)cc1 [3β-(4'-Carboxyphenyl)ethynyl-3α-hydroxy-5β-pregnan-20-one ethyl ester],IC50,[1],8 nM
CC(=O)[C@H]1CC[C@H]2[C@@H]3CC[C@H]4C[C@@](O)(CBr)CC[C@]4(C)[C@H]3CC[C@]12C [3β-(Bromomethyl)-3α-hydroxy-5α-pregnan-20-one],IC50,[1],190 nM
C=CCC[C@@]1(O)CC[C@@]2(C)[C@@H](CC[C@@H]3[C@@H]2CC[C@]2(C)[C@@H](C(C)=O)CC[C@@H]32)C1 [3β-(But-3-enyl)-3α-hydroxy-5α-pregnan-20-one],IC50,[1],242 nM
"C=C=CC[C@@]1(O)CC[C@@]2(C)[C@@H](CC[C@@H]3[C@@H]2CC[C@]2(C)[C@@H](C(C)=O)CC[C@@H]32)C1 [3β-(Buta-2,3-dienyl)-3α-hydroxy-5α-pregnan-20-one]",IC50,[1],347 nM
CCOC[C@@]1(O)CC[C@@]2(C)[C@@H](CC[C@@H]3[C@@H]2CC[C@]2(C)[C@@H](C(C)=O)CC[C@@H]32)C1 [3β-(Ethoxymethyl)-3α-hydroxy-5α-pregnan-20-one],IC50,[1],154 nM
CC(=O)[C@H]1CC[C@H]2[C@@H]3CC[C@@H]4C[C@@](O)(C#CCl)CC[C@]4(C)[C@H]3CC[C@]12C [3β-(chloroethynyl)-3α-hydroxy-5β-pregnan-20-one],IC50,[1],26 nM
C#C[C@@]1(O)CC[C@H]2[C@H](CC[C@@H]3[C@@H]2CC[C@]2(C)/C(=C\C)CC[C@@H]32)C1 [3β-Ethynyl-3α-hydroxy-5β-19-nor-pregn-17(z)-ene],IC50,[1],460 nM
C#C[C@@]1(O)CC[C@H]2[C@H](CC[C@@H]3[C@@H]2CC[C@]2(C)[C@@H](C(C)=O)CC[C@@H]32)C1 [3β-Ethynyl-3α-hydroxy-19-nor-5β-pregnan-20-one],IC50,[1],44 nM
"COc1ccc(C#C[C@@]2(O)CC[C@@]3(C)[C@H](CC[C@@H]4[C@@H]3CC[C@]3(C)[C@@H](C(C)=O)CC[C@@H]43)C2)cc1OC [3β-[(3',4'-Dimethoxyphenyl)ethynyl] -3α-hydroxy-5/3-pregnan-20-one]",IC50,[1],283 nM
CC(=O)[C@H]1CC[C@H]2[C@@H]3CC[C@H]4C[C@@](O)(CN=[N+]=[N-])CC[C@]4(C)[C@H]3CC[C@]12C [3β-azidomethyl-3α-hydroxy-5α-pregnan-20-one],IC50,[1],34 nM
CC(=O)[C@H]1CC[C@H]2[C@@H]3CC[C@H]4C[C@@](O)(CC#N)CC[C@]4(C)[C@H]3CC[C@]12C [3β-cyanomethyl-3α-hydroxy-5α-pregnan-20-one],IC50,[1],439 nM
"C#C[C@@]1(O)CC[C@@]2(C)[C@@H](CC[C@@H]3[C@@H]2CC[C@]2(C)[C@@H](C(C)=O)CC[C@@H]32)C1 [3β-ethynyl-3α-hydroxy-5α-pregnan-20-one, 3β-Ethynyl-3α-hydroxy-5α-pregnan-20-one]",REM sleep,rats,slight REM-interference
same,NREM sleep,rats; administered at CT-5 or CT-18,potent NREM-promoting effect
"Cc1cccc([C@H](C)c2cnc[nH]2)c1C [Dexmedetomidine, reference compound]",REM sleep,rats,strongly interfered with REM sleep
same,rebound insomnia / rebound wakefulness / rebound effects,rats,strong rebound effects
"Cc1nnc2n1-c1ccc(Cl)cc1C(c1ccccc1Cl)=NC2 [Triazolam, reference compound]",LMA after the hypnotic action has worn off,rats,reduced body temperature and locomotor activity
same,body temperature,rats,affect body temperature; also recorded: reduced body temperature
same,NREM sleep / hypnotic effect,rats; administered at CT-5,no hypnotic effect
same,LMA versus vehicle control,rats,reduced LMA below vehicle control levels
same,REM sleep,rats; [2],reduced REM sleep
"Cc1ccc(-c2nc3ccc(C)cn3c2CC(=O)N(C)C)cc1 [Zolpidem, reference compound]",LMA after the hypnotic action has worn off,rats,continues to depress LMA; also recorded: reduced body temperature and locomotor activity
same,REM sleep,rats,strongly interfered with REM sleep
same,body temperature,rats,affect body temperature; also recorded: reduced body temperature
same,rebound insomnia / rebound wakefulness / rebound effects,rats,did not produce rebound insomnia
same,NREM sleep / hypnotic effect,rats; administered at CT-5,unable to effectively induce NREM sleep
same,REM sleep,rats; administered at CT-5,interferes with REM sleep
same,LMA versus vehicle control,rats,reduced LMA below vehicle control levels
same,REM sleep,rats; [2],reduced REM sleep
